In US20130252890A1, “6,7-DIHYDRO-5H-BENZO[7]ANNULENE DERIVATIVES, PROCESS FOR PREPARATION THEREOF, PHARMACEUTICAL PREPARATIONS COMPRISING THEM, AND THE USE THEREOF FOR PRODUCTION OF MEDICAMENTS” (BAYER INTELLECTUAL PROPERTY GMBH, priority 2010, published 2013):

What was measured:
uterus = assay: Anti-uterus growth test in the adult rat; settings: sc, 72 h; ovariectomized adult rat, s.c. 3 days with 1.5 μg/kg/day 17β-estradiol; inhibition of uterus growth; value of 44 is a mean of two measurements; read-out: anti-oestrogenic activity in vivo in % at a dose of 0.3 mg/kg (rat)
Description: The uterus of oestrogen-substituted rats can be used as a test model for detecting a direct action of substances with anti-oestrogenic properties. The parameter of oestrogenic action is estradiol-induced uterus growth in rats, which is inhibited by simultaneous administration of a substance with anti-oestrogenic action. The experimental animals (n=5-6 animals/group) were ovariectomized before the start of the test, to rule out the influence of endogenous oestrogens. After a phase of 6 to 10 days, the test substances are administered s.c. on 3 consecutive days (d1-d3) in combination with a substitution dose of 1.5 μg/kg/day 17β-estradiol. 17β-estradiol alone serves as positive control, and the excipients serve as negative control. On day 4 (d4) the animals are killed, and the uteri and vaginae are removed and weighed. The organ weights are converted to mg/100 g body weight, then the mean value and the standard deviation are calculated for each dosage. The inhibition of uterus growth induced by 17β-estradiol is shown as percentage inhibition.

oestrogen receptor (ER) = target: T1, oestrogen receptor (ER) (Homo sapiens, UniProt P03372); assay: Anti-oestrogenic action in MVLN cells (inhibition of estradiol-induced luciferase); assay type: cell-based; settings: inhibition of estradiol-induced luciferase signal, value of Ex. 44 is a mean value, read-out: Antioestrogenic action in vitro: MVLN transactivation antagonism IC50
T1 construct: These MVLN cells express, along with the functional oestrogen receptor (ER), a reporter construct; endogenous in cells; host or cells: MVLN cells (MCF7 derivative carrying a luciferase reporter construct)
T1 sequence (P03372 1-595): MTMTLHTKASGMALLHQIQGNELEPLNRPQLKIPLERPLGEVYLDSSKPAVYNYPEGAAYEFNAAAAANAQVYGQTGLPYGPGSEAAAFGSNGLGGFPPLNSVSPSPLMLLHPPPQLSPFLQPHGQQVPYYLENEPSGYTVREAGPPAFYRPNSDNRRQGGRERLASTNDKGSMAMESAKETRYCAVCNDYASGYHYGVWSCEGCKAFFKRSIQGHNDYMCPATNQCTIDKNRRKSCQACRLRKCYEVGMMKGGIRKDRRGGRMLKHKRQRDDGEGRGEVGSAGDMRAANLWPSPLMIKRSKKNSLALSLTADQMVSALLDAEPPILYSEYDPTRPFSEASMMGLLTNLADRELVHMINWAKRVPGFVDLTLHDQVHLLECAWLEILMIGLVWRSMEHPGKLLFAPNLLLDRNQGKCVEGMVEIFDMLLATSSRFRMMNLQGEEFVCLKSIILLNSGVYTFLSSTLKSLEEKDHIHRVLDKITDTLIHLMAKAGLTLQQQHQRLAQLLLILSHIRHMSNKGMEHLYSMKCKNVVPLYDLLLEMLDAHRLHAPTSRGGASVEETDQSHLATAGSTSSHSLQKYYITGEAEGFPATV
Outline: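 MVLN cells, MCF7 breast cancer derivatives carrying functional ER plus an ER-activated luciferase reporter, were treated with compounds in the presence of estradiol. Anti-oestrogenic activity taken as inhibition of the estradiol-induced luciferase signal.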

Row | SMILES | inhibition in vivo at 0.3 mg/kg (uterus) [%] | IC50 (oestrogen receptor (ER)) [nM]
1 | CN(CCCCCCC1=C(c2cc(F)cc(F)c2)CCCc2cc(O)ccc21)CCCCS(=O)(=O)CCC(F)(F)F [Example 46, 8-(3,5-Difluorophenyl)-9-[6-(methyl{4-[(3,3,3-trifluoropropyl)sulphonyl]butyl}amino)hexyl]-6,7-dihydro-5H-benzo[7]annulen-3-ol] | 30 | 36
2 | CN(CCCCCCC1=C(c2cccc(F)c2)CCCc2cc(O)ccc21)CCCS(=O)(=O)CCCC(F)(F)C(F)(F)F [Example 125, 8-(3-fluorophenyl)-9-[6-(methyl{3-[(4,4,5,5,5-pentafluoropentyl)sulphonyl]propyl}amino)hexyl]-6,7-dihydro-5H-benzo[7]annulen-3-ol] | 75 | 13
3 | CN(CCCCCCC1=C(c2cc(F)cc(F)c2)CCCc2cc(O)ccc21)CCCS(=O)(=O)CCCC(F)(F)F [Example 7, 8-(3,5-Difluorophenyl)-9-[6-(methyl{3-[(4,4,4-trifluorobutyl)sulphonyl]propyl}amino)hexyl]-6,7-dihydro-5H-benzo[7]annulen-3-ol] | 23 | 24
4 | CN(CCCCCCC1=C(c2ccc(F)c(F)c2)CCCc2cc(O)ccc21)CCCCS(=O)(=O)CCCC(F)(F)F [Example 45, 8-(3,4-Difluorophenyl)-9-[6-(methyl{4-[(4,4,4-trifluorobutyl)sulphonyl]butyl}amino)hexyl]-6,7-dihydro-5H-benzo[7]annulen-3-ol] | 73 | 20
5 | CN(CCCCCCC1=C(c2ccc(F)cc2)CCCc2cc(O)ccc21)CCCCS(=O)(=O)CCCC(F)(F)F [Example 48, 8-(4-Fluorophenyl)-9-[6-(methyl{4-[(4,4,4-trifluorobutyl)sulphonyl]butyl}amino)hexyl]-6,7-dihydro-5H-benzo[7]annulen-3-ol] | 79 | 17
6 | CC(C)(O)CN(CCCCCCC1=C(c2ccc(F)c(F)c2)CCCc2cc(O)ccc21)CCCS(=O)(=O)CCC(F)(F)F [Example 27, 8-(3,4-Difluorophenyl)-9-{6-[(2-hydroxy-2-methylpropyl){3-[(3,3,3-trifluoropropyl)sulphonyl]propyl}amino]hexyl}-6,7-dihydro-5H-benzo[7]annulen-3-ol] | 10 | 35
7 | CN(CCCCCCC1=C(c2ccc(F)c(F)c2)CCCc2cc(O)ccc21)CCCS(=O)(=O)CCCC(F)(F)F [Example 23, 8-(3,4-Difluorophenyl)-9-[6-(methyl{3-[(4,4,4-trifluorobutyl)sulphonyl]propyl}amino)hexyl]-6,7-dihydro-5H-benzo[7]annulen-3-ol] | 33 | 22
8 | O=S(=O)(CCCN(CCCO)CCCCCCC1=C(c2ccc(F)cc2)CCCc2c1ccc(O)c2F)CCCC(F)(F)C(F)(F)F [Example 60, 4-Fluoro-8-(4-fluorophenyl)-9-{6-[(3-hydroxypropyl){3-[(4,4,5,5,5-pentafluoropentyl)sulphonyl]propyl}amino]hexyl}-6,7-dihydro-5H-benzo[7]annulen-3-ol] |  | 15
9 | O=S(=O)(CCCN(CCCCCCC1=C(c2ccc(F)cc2)CCCc2c1ccc(O)c2F)CC(F)(F)F)CCCC(F)(F)C(F)(F)F [Example 84, 4-Fluoro-8-(4-fluorophenyl)-9-{6-[{3-[(4,4,5,5,5-pentafluoropentyl)sulphonyl]propyl}(2,2,2-trifluoroethyl)amino]hexyl}-6,7-dihydro-5H-benzo[7]annulen-3-ol] |  | 252
10 | CN(CCCCCCC1=C(c2cc(F)cc(F)c2)CCCc2cc(O)ccc21)CCCC[S+]([O-])CCCC(F)(F)C(F)(F)F (stereo not drawn) [Example 4, 8-(3,5-Difluorophenyl)-9-[6-(methyl{4-[(4,4,5,5,5-pentafluoropentyl)sulphinyl]butyl}amino)hexyl]-6,7-dihydro-5H-benzo[7]annulen-3-ol] |  | 6
11 | CC(C)(O)CN(CCCCCCC1=C(c2ccc(F)c(F)c2)CCCc2cc(O)ccc21)CCC[S+]([O-])CCCC(F)(F)C(F)(F)F (stereo not drawn) [Example 28, 8-(3,4-Difluorophenyl)-9-{6-[(2-hydroxy-2-methylpropyl){3-[(4,4,5,5,5-pentafluoropentyl)sulphinyl]propyl}amino]hexyl}-6,7-dihydro-5H-benzo[7]annulen-3-ol] |  | 9
12 | O=S(=O)(CCCCN(CCO)CCCCCCC1=C(c2ccc(F)cc2)CCCc2cc(O)c(F)cc21)CCC(F)(C(F)(F)F)C(F)(F)F [Example 138, 2-Fluoro-8-(4-fluorophenyl)-9-{6-[(2-hydroxyethyl)(4-{[3,4,4,4-tetrafluoro-3-(trifluoromethyl)butyl]sulphonyl}butyl)amino]hexyl}-6,7-dihydro-5H-benzo[7]annulen-3-ol] |  | 21
13 | CC(C)(O)CN(CCCCCCC1=C(c2ccc(F)cc2)CCCc2cc(O)ccc21)CCC[S+]([O-])CCC(F)(F)F (stereo not drawn) [Example 120, 8-(4-fluorophenyl)-9-{6-[(2-hydroxy-2-methylpropyl){3-[(3,3,3-trifluoropropyl)sulphinyl]propyl}amino)hexyl}-6,7-dihydro-5H-benzo[7]annulen-3-ol] |  | 56
14 | CN(CCCCCCC1=C(c2ccc(F)cc2)CCCc2cc(O)c(F)cc21)CCCCS(=O)(=O)CCCC(F)(F)C(F)(F)F [Example 105, 2-Fluoro-8-(4-fluorophenyl)-9-[6-(methyl{4-[(4,4,5,5,5-pentafluoropentyl)sulphonyl]butyl}amino)hexyl]-6,7-dihydro-5H-benzo[7]annulen-3-ol] |  | 12
15 | COC(=O)CCN(CCCCCCC1=C(c2ccc(F)cc2)CCCc2cc(O)ccc21)CCCCS(=O)(=O)CCCC(F)(F)F [Example 83, Methyl-N-{6-[8-(4-fluorophenyl)-3-hydroxy-6,7-dihydro-5H-benzo[7]annulen-9-yl]hexyl}-N-{4-[(4,4,4-trifluorobutyl)sulphonyl]butyl}-beta-alaninate] |  | 13
16 | CN(CCCCCCC1=C(c2ccc(F)cc2F)CCCc2cc(O)ccc21)CCCCS(=O)(=O)CCCC(F)(F)F [Example 132, 8-(2,4-Difluorophenyl)-9-[6-(methyl{4-[(4,4,4-trifluorobutyl)sulphonyl]butyl}amino)hexyl]-6,7-dihydro-5H-benzo[7]annulen-3-ol] |  | 4
17 | O=C(O)CCN(CCCCCCC1=C(c2ccc(F)cc2)CCCc2cc(O)ccc21)CCCCS(=O)(=O)CCCC(F)(F)F [Example 95, N-{6-[8-(4-Fluorophenyl)-3-hydroxy-6,7-dihydro-5H-benzo[7]annulen-9-yl]hexyl}-N-{4-[(4,4,4-trifluorobutyl)sulphonyl]butyl}-beta-alanine] |  | 19
18 | C[C@@H](O)CN(CCCCCCC1=C(c2ccc(F)cc2)CCCc2cc(O)ccc21)CCCCS(=O)(=O)CCCC(F)(F)F [Example 98] |  | 6
19 | CN(CCCCCCC1=C(c2cc(F)cc(F)c2)CCCc2cc(O)ccc21)CCC[S+]([O-])CCCC(F)(F)C(F)(F)F (stereo not drawn) [Example 8, 8-(3,5-Difluorophenyl)-9-[6-(methyl{3-[(4,4,5,5,5-pentafluoropentyl)sulphinyl]propyl}amino)hexyl]-6,7-dihydro-5H-benzo[7]annulen-3-ol] |  | 12
20 | CN(CCCCCCC1=C(c2ccc(F)cc2)CCCc2cc(O)ccc21)CCCS(=O)(=O)CCC(F)(F)C(F)(F)F [Example 116, 8-(4-fluorophenyl)-9-[6-(methyl{3-[(3,3,4,4,4-pentafluorobutyl)sulphonyl]propyl}amino)hexyl]-6,7-dihydro-5H-benzo[7]annulen-3-ol] | 15 | 34
21 | O=S(=O)(CCCN(CCF)CCCCCCC1=C(c2ccc(F)cc2)CCCc2cc(O)ccc21)CCCC(F)(F)C(F)(F)F [Example 74, 9-{6-[(2-Fluoroethyl){3-[(4,4,5,5,5-pentafluoropentyl)sulphonyl]propyl}amino]hexyl}-8-(4-fluorophenyl)-6,7-dihydro-5H-benzo[7]annulen-3-ol] |  | 28
22 | CN(CCCCCCC1=C(c2cc(F)cc(F)c2)CCCc2cc(O)ccc21)CCCS(=O)(=O)CCCCC(F)(F)F [Example 70, 8-(3,5-Difluorophenyl)-9-[6-(methyl{3-[(5,5,5-trifluoropentyl)sulphonyl]propyl}amino)hexyl]-6,7-dihydro-5H-benzo[7]annulen-3-ol] |  | 18
